Entries after “also recorded” stand apart in the source; their conditions may differ. Counter-ions that a name gives are not always drawn. Like-named read-outs stand apart in the source and are kept apart here.
Assays:
[1] = test system: spermidine/spermine acetyltransferase (SSAT); assay: SSAT activity in treated L1210 cells; type: cell-based, murine; details: L1210, 10 μM at 48 hours (triamine analogues)
Description: Spermidine/spermine N^1-acetyltransferase activity was based on quantitation of [^14C]-N^1-acetylspermidine formed by acetylation of SPD with [^14C] acetyl coenzyme A according to the method of Libby et al [Biochem. Pharmacol., Vol. 38, supra]. Cells treated with DENSPM were positive controls.

L1210 cells [2] = assay: L1210 growth inhibition, IC50 determination; type: cell-based, murine; details: Mus musculus
Experimental: Murine L1210 leukemia cells (ATCC CCL 219) were maintained in logarithmic growth in RPMI-1640 medium containing 10% fetal calf serum or a semi-synthetic equivalent, NuSerum, 2% HEPES-MOPS buffer and 1 mM aminoguanidine.

L1210 cells [3] = assay: Polyamine pool analysis in L1210 cells; type: cell-based, murine; details: for activity at 100 µM / activity at 500 µM / activity at 0.9 µM / activity at 4.5 µM: Mus musculus; for activity at 100 µM / activity at 500 µM / activity at 0.9 µM / activity at 4.5 µM / Put / Spd: % of untreated control; for Analogue: intracellular amount; for Put / Spd: Trihydrochloride
Experimental: The following guidelines were adopted for studying the impact of the analogues on polyamine pools (Table 2). The measurements were made after a 48-hour exposure to the analogue, and two different concentrations of analogue were evaluated in each case.
(§1) The cells were washed twice with cold RPMI-1640, and the pellet was treated with 0.6 N HClO4 (1 ml/10^7 cells). Polyamine contents of the perchloric acid extracts were quantitated by HPLC of the DANSYL derivatives [Bergeron et al, J. Med. Chem., Vol. 37, supra].

[4] = test system: S-adenosylmethionine decarboxylase (AdoMetDC); assay: AdoMetDC activity in treated L1210 cells; type: cell-based, murine; details: L1210, 1 μM at 6 hours
Experimental: (§2) On the basis of these studies, it was elected to evaluate the impact of the triamines on ODC and AdoMetDC at 4 and 6 hours, respectively.
(§3) ODC and AdoMetDC activities were determined as ^14CO2 released from [^14C]-carboxyl-labeled L-ornithine [Seely et al, “Ornithine Decarboxylase (Mouse Kidney),” Methods Enzymol., Vol. 94, pages 158-161 (1983)] or S-adenosyl-L-methionine [Pegg et al, “S-Adenosylmethionine Decarboxylase (Rat Liver),” Methods Enzymol., Vol. 94, pages 234-239 (1983)], respectively. Included in each assay were untreated L1210 cells as controls, as well as cells treated with DEHSPM, a drug having a known reproducible effect on each enzyme, as positive controls.

[5] = test system: polyamine transport apparatus; assay: Competitive uptake determination: inhibition of [3H]spermidine transport into L1210 cells; type: cell-based, murine; details: analogue inhibition of spermidine transport
Experimental: The ability of the norspermidines, spermidines, homospermidines, 4,5- and 5,5-triamines to compete with radiolabeled SPD for uptake was evaluated (Table 1). The general trend is that the terminally alkylated triamines have higher Ki values than the unalkylated triamines and are thus less easily taken up by the cell. […] This is not completely true with the norspermidines and the 5,5 triamines. The relationship holds with methyl and ethyl but not for the propyl of the latter two systems. Finally, the number of methylenes separating the amines plays a role in determining polyamine uptake properties. In general the effectiveness with which the analogues compete for uptake is spermidines≈homospermidines>4,5 triamines>5,5 triamines>norspermidine.
The polyamine derivatives were studied for their ability to compete with [^3H]-SPD for uptake into L1210 cells [Bergeron et al, J. Med. Chem., Vol. 37, supra]. Lineweaver-Burk plots indicated a simple competitive inhibition with respect to SPD.

[6] = test system: ornithine decarboxylase (ODC); assay: ODC activity in treated L1210 cells; type: cell-based, murine; details: L1210, 1 μM at 4 hours
Experimental: as §2, §3

L1210 cells [7] = assay: Metabolic transformation of polyamine analogues by L1210 cells; type: in vitro ADME, murine; details: 48 hours, 100 μM analogue
Experimental: as §1

L1210 cells [8] = details: intracellular amount, 48 hours, cited from earlier work
[9] = L1210, 48 h, L1210, 48 hour exposure, read-out: IC50 48 hour
[10] = L1210, 96 h, L1210, 96 hour exposure, read-out: IC50 96 hour
[11] = L1210, 48 h, 100 μM, read-out: Put
[12] = L1210, 48 h, 100 μM, read-out: Spd
[13] = L1210, 48 h, 100 μM, read-out: Spm
[14] = L1210, 48 h, 500 μM, read-out: Put
[15] = L1210, 48 h, 500 μM, read-out: Spd
[16] = L1210, 48 h, 500 μM, read-out: Spm
[17] = 500 μM, 48 hours, listed as (4,5)
[18] = 500 μM, 48 hours, listed as (5,5)

Compound	SSAT activity, percent of untreated control [1]	IC50 (L1210 cells [2]; [9]) [µM]	IC50 (L1210 cells [2]; [10]) [µM]	activity at 100 µM (L1210 cells [3]; [11]) [%]	activity at 100 µM (L1210 cells [3]; [12]) [%]	activity at 100 µM (L1210 cells [3]; [13]) [%]	activity at 500 µM (L1210 cells [3]; [14]) [%]	activity at 500 µM (L1210 cells [3]; [15]) [%]	activity at 500 µM (L1210 cells [3]; [16]) [%]	Analogue (L1210 cells [3]; 100 μM, 48 hours) [nmol/10^6 cells]	Analogue (L1210 cells [3]; 500 μM, 48 hours) [nmol/10^6 cells]	AdoMetDC activity, percent of untreated control [4]	Ki [5] [µM]	ODC activity, percent of untreated control [6]	Parent drug as % of total drug in the cell (L1210 cells [7]) [%]	Parent drug in L1210 cells (L1210 cells [7]) [pmols/10^6]	also measured
CCCNCCCCNCCCCN [MPHSPD, N^1-Propylhomospermidine Trihydrochloride]	570% of untreated control	100	0.5 to 0.7	0	2	82	0	0	66	5.16	5.86	59% of untreated control	5	20% of untreated control	–	–	–
CCCNCCCNCCCCN [MPSPD(N1), N^1-Propylspermidine Trihydrochloride]	1200% of untreated control	> 100	20 to 35	0	25	90	0	15	72	3.97	4.95	56% of untreated control	3	18% of untreated control	93.9	4238	–
CCCNCCCCNCCCNCCC [DPSPD, N^1,N^8-Dipropylspermidine Trihydrochloride]	1030% of untreated control	> 100	30 to 35	6	35	135	0	~10	99	3.26	3.69	–	25.6	75% of untreated control	90.1	3260	–
CCNCCCNCCCCNCCCN [MESPM]	–	–	–	–	–	–	–	–	–	–	–	–	–	–	–	–	Analogue, corresponding tetraamine (in parentheses) (L1210 cells [8]; 100 μM): (1.24) nmol/10^6 cells; Analogue, corresponding tetraamine (in parentheses) (L1210 cells [8]; 500 μM): (1.23) nmol/10^6 cells
NCCCCNCCCCN [HSPD, Homospermidine Trihydrochloride]	430% of untreated control	> 100	1.7 to 4	–	–	–	–	–	–	3.58	4.44	54% of untreated control	3.4	11% of untreated control	–	–	activity at 100 µM (L1210 cells [3]; L1210, 100 μM, 48 hours, read-out: Put): 0%; activity at 100 µM (L1210 cells [3]; L1210, 100 μM, 48 hours, read-out: Spd): 4%; activity at 100 µM (L1210 cells [3]; L1210, 100 μM, 48 hours, read-out: Spm): 32%; activity at 500 µM (L1210 cells [3]; L1210, 500 μM, 48 hours, read-out: Put): 0%; activity at 500 µM (L1210 cells [3]; L1210, 500 μM, 48 hours, read-out: Spd): 2%; activity at 500 µM (L1210 cells [3]; L1210, 500 μM, 48 hours, read-out: Spm): 21%
NCCCNCCCN [NSPD, N—(3-aminopropyl)-1,3-propanediamine, reference compound]	150% of untreated control	0.9	0.5	–	–	–	–	–	–	–	–	62% of untreated control	7.2	11% of untreated control	–	–	activity at 0.9 µM (L1210 cells [3]; L1210, 0.9 μM, 48 hours, read-out: Put): 38%; activity at 0.9 µM (L1210 cells [3]; L1210, 0.9 μM, 48 hours, read-out: Spd): 44%; activity at 0.9 µM (L1210 cells [3]; L1210, 0.9 μM, 48 hours, read-out: Spm): 113%; activity at 4.5 µM (L1210 cells [3]; L1210, 4.5 μM, 48 hours, read-out: Put): 0%; activity at 4.5 µM (L1210 cells [3]; L1210, 4.5 μM, 48 hours, read-out: Spd): 12%; activity at 4.5 µM (L1210 cells [3]; L1210, 4.5 μM, 48 hours, read-out: Spm): 83%; Analogue (L1210 cells [3]; 0.9 μM, 48 hours): 1.09 nmol/10^6 cells; Analogue (L1210 cells [3]; 4.5 μM, 48 hours): 2.14 nmol/10^6 cells
NCCCCCNCCCCN [4,5-Triamine, 1,6,12-Triazadodecane Trihydrochloride]	410% of untreated control	> 100	0.15 to 0.2	0	1	53	0	0	35	3.02	3.20	57% of untreated control	1.4	19% of untreated control	–	–	Put (L1210 cells [3]; [17]): below detectable level; Spd (L1210 cells [3]; [17]): below detectable level
NCCCCCNCCCCCN [5,5-Triamine, 1,7,13-Triazatridecane Trihydrochloride]	90% of untreated control	~100	0.3 to 0.5	0	0	33	0	0	20	2.58	2.50	88% of untreated control	13.8	16% of untreated control	–	–	Put (L1210 cells [3]; [18]): below detectable level; Spd (L1210 cells [3]; [18]): below detectable level
CCNCCCNCCCN [MENSPD, monoethylnorspermidine]	390% of untreated control	> 100	> 100	–	–	–	–	–	–	–	–	58% of untreated control	34	42% of untreated control	78.2	3051	Elaboration to tetraamine (result in words) (L1210 cells [7]; listed as ME-[3,3]): no evidence of a tetraamine elaboration metabolite; also recorded: no elaboration of N-Monoalkyl [3,3]

Source: patent US20020045780A1, “Biologically active spermidine analogues, pharmaceutical compositions and methods of treatment” (priority 1997, published 2002)
